Assay results published in patent publication US20230365556A1, “N-ACYL AMINO ACID COMPOUNDS AND METHODS OF USE” (Pliant Therapeutics, Inc., priority 2016, published 2023).
Where a name gives a salt, the structure may show the parent alone.

Biological target: αvβ1 integrin (αvβ1 expressing CHO cells) (Homo sapiens (Human), UniProt P05556+P06756)
Experiment: Cell adhesion assay: inhibition of αvβ1 expressing CHO cells attaching to TGFβ1LAP
Format: cell-based
Details: 1 h at 37° C., crystal violet absorbance 595 nm, read-out: αvβ1 Inhibition IC50 (nM)-range
Protocol: Example B1—Cell Adhesion Assay
In order to determine the potency, the compounds were assessed for their ability to inhibit αvβ1 expressing CHO cells attach to TGFβ1LAP. Microplates were coated overnight with 2 ug/ml TGFβ1LAP at 4° C., and blocked with 2% BSA/PBS for 30 min before the assay. Cells were detached and washed in PBS. After that the cells were resuspended in DMEM at 1.0×10^6 cells/ml, fifty microliter of cell suspension and fifty microliter of compound solution were added into the plate. The plates were incubated for one hour at 37° C. in humidified 5% carbon dioxide. Non-adherent cells were removed by centrifugation top side down at 58 g for 5 min. The attached cells were fixed and stained with 0.5% crystal violet (in 20% methanol and 1% formaldehyde) and the wells washed with PBS. Crystal violet was dissolved in 2% Triton-X in PBS. The relative number of cells in each well was evaluated by the absorbance at 595 nm in a microplate reader (Tecan). IC50 values were determined by non-linear regression with four parameters (Graphpad Prism 7.01, Y=Bottom+(Top−Bottom)/(1+10^((Log IC50−X)*HillSlope)).
The compounds tested were compound samples prepared according to procedures described in the Synthetic Examples section, with the stereochemical purity as indicated in the Examples indicated for Example or Compound No. 1-62. The compounds tested were predominantly S-configuration at the alpha carbon of the amino acid scaffold, except for compounds 123, 124, and 125 which were predominantly R-configuration at the alpha carbon of the amino acid scaffold. “Example or Compound No.” in Table B-1 refers to the compound illustrated in the examples for Example or Compound Nos. 1-62 (the compounds of Examples 1-62 are labeled as Compounds 1-62 in Table 1). “Example or Compound No.” in Table B-1 refers to the compound number as indicated in Table 1 or Table 2 for Example or Compound Nos. 63-126.

Sequence of αvβ1 integrin (αvβ1 expressing CHO cells) (P06756 31-889): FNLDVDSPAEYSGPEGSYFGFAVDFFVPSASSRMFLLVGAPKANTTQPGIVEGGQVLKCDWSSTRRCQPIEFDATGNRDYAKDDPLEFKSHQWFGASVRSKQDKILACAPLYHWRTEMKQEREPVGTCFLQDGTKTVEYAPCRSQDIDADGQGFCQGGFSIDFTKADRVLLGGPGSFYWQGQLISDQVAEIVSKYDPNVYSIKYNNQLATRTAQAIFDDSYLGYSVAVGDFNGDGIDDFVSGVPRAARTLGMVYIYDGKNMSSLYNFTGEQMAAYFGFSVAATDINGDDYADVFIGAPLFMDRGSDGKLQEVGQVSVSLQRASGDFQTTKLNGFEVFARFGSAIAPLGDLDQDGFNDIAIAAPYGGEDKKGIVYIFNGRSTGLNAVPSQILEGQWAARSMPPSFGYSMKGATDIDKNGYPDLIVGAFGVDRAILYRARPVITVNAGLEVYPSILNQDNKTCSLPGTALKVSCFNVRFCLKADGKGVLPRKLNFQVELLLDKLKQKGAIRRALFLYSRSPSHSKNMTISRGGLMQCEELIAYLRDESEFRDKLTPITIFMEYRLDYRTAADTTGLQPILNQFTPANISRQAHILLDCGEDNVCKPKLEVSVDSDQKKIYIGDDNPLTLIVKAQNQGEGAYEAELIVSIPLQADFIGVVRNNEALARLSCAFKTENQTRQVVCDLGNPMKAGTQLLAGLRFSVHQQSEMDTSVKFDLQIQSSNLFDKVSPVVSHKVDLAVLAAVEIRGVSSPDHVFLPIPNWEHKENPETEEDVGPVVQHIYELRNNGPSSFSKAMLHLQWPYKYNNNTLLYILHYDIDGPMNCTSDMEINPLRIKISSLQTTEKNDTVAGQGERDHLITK
Sequence of αvβ1 integrin (αvβ1 expressing CHO cells) (P06756 891-1048 partner): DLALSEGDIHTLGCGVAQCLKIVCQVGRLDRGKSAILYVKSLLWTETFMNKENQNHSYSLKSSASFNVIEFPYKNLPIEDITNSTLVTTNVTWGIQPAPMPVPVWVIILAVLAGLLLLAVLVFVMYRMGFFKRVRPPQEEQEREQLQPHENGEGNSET
Sequence of αvβ1 integrin (αvβ1 expressing CHO cells) (P05556 21-798): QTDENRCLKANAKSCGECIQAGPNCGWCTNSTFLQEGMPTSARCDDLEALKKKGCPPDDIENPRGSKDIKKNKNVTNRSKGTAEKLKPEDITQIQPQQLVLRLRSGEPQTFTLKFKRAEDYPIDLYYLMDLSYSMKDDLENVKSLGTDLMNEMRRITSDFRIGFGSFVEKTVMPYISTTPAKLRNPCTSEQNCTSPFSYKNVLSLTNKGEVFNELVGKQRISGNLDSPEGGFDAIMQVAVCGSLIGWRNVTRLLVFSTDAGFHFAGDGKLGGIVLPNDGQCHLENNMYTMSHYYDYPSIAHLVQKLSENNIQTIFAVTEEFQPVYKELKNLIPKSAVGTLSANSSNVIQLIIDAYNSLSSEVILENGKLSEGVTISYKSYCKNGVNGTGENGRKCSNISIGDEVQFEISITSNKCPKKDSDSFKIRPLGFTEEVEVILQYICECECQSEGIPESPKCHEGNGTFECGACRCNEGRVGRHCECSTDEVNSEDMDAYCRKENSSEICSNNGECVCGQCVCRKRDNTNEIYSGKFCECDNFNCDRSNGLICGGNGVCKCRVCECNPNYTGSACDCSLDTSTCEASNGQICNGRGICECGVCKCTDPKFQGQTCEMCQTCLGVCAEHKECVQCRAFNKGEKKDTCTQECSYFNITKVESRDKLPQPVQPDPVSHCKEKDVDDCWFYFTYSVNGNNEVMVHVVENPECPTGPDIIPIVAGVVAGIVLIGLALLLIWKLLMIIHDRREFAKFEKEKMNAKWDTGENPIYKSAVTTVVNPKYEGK

SMILES | IC50 [nM]
Cn1ncc2cc(C(=O)N[C@@H](CCCCCCCc3ccc4c(n3)NCCC4)C(=O)O)ccc21 [Compound 104] | 50 to 250
O=C(N[C@@H](Cc1ccc(OCCCCNC2=NCCCO2)cc1)C(=O)O)c1c(Cl)cccc1Cl [Example 59, (S)-2-(2,6-dichlorobenzamido)-3-(4-(4-((5,6-dihydro-4H-1,3-oxazin-2-yl)amino)butoxy)phenyl)propanoic acid] | > 1000
Cn1cc2cc(C(=O)N[C@@H](CCCCCCCc3ccc4c(n3)NCCC4)C(=O)O)ccc2n1 [Compound 109] | 50 to 250
Cn1ncc2ccc(C(=O)N[C@@H](CCCCCCCc3ccc4c(n3)NCCC4)C(=O)O)cc21 [Compound 102] | 50 to 250
O=C(N[C@@H](CCCCCCCc1ccc2c(n1)NCCC2)C(=O)O)c1cn[nH]c1-c1ccccc1 [Compound 110] | 50 to 250
O=C(N[C@@H](Cc1ccc(OCC2(CNc3ccccn3)CC2)cc1)C(=O)O)c1c(Cl)cccc1Cl [Example 46, (2S)-2-((2,6-dichlorobenzoyl)amino)-3-(4-((1-((2-pyridylamino)methyl)cyclopropyl)methoxy)phenyl)propanoic acid] | 50 to 250
O=C(N[C@@H](CCCCCCCCNC1=NCCO1)C(=O)O)c1c(Cl)cccc1Cl [Example 48, (S)-2-(2,6-dichlorobenzamido)-10-((4,5-dihydrooxazol-2-yl)amino)decanoic acid] | > 1000
O=C(N[C@@H](Cc1ccc(OCCCCNC2=NCCNC2)cc1)C(=O)O)c1c(Cl)cccc1Cl [Example 56, (S)-2-(2,6-dichlorobenzamido)-3-(4-(4-((3,4,5,6-tetrahydropyrazin-2-yl)amino)butoxy)phenyl)propanoic acid] | 250 to 1000
O=C(NC(CN1CC(OCCCc2ccc3c(n2)NCCC3)C1)C(=O)O)c1c(Cl)cccc1Cl (stereo not drawn) [Compound 74, 2-(2,6-dichlorobenzamido)-3-(3-(3-(5,6,7,8-tetrahydro-1,8-naphthyridin-2-yl)propoxy)azetidin-1-yl)propanoic acid] | 250 to 1000
CN1CC(NCCCCOc2ccc(C[C@H](NC(=O)c3c(Cl)cccc3Cl)C(=O)O)cc2)=NCC1=O [Example 58, (S)-2-(2,6-dichlorobenzamido)-3-(4-(4-((4-methyl-5-oxo-3,4,5,6-tetrahydropyrazin-2-yl)amino)butoxy)phenyl)propanoic acid] | > 1000
O=C(N[C@@H](CCCCCCCCNC1=NCCNC1)C(=O)O)c1c(Cl)cccc1Cl [Example 47, (S)-2-(2,6-dichlorobenzamido)-10-((3,4,5,6-tetrahydropyrazin-2-yl)amino)decanoic acid] | > 1000
O=C(N[C@@H](Cc1cccc(OCCCc2ccc3c(n2)NCCC3)c1)C(=O)O)c1c(Cl)cccc1Cl [Example 37, (2S)-2-((2,6-dichlorobenzoyl)amino)-3-(3-(3-(5,6,7,8-tetrahydro-1,8-naphthyridin-2-yl)propoxy)phenyl)propanoic acid] | 250 to 1000
O=C(NC(Cc1ccc(COC2CC(Nc3ccccn3)C2)cc1)C(=O)O)c1c(Cl)cccc1Cl [Example 32, (S)-2-(2,6-dichlorobenzamido)-3-(4-(((1s,3R)-3-(pyridin-2-ylamino)cyclobutoxy)methyl)phenyl)propanoic acid trifluoroacetate] | 50 to 250
O=C(N[C@@H](Cc1ccc(OCCCCNC2=NCCS2)cc1)C(=O)O)c1c(Cl)cccc1Cl [Example 62, (S)-2-(2,6-dichlorobenzamido)-3-(4-(4-((4,5-dihydrothiazol-2-yl)amino)butoxy)phenyl)propanoic acid] | < 50
CN1CCN=C(NCCCCCCCC[C@H](NC(=O)c2c(Cl)cccc2Cl)C(=O)O)C1=O [Example 53, (S)-2-(2,6-dichlorobenzamido)-10-((4-methyl-3-oxo-3,4,5,6-tetrahydropyrazin-2-yl)amino)decanoic acid] | > 1000
Cc1nccc(C(=O)N[C@@H](Cc2ccc(OCCCc3ccc4c(n3)NCCC4)cc2)C(=O)O)n1 [Example 8, (S)-2-(2-methylpyrimidine-4-carboxamido)-3-(4-(3-(5,6,7,8-tetrahydro-1,8-naphthyridin-2-yl)propoxy)phenyl)propanoic acid] | 50 to 250
O=C(N[C@@H](Cc1ccc(N2CC(c3ccc4c(n3)NCCC4)C2)cc1)C(=O)O)c1c(Cl)cccc1Cl [Example 22, (S)-2-(2,6-dichlorobenzamido)-3-(4-(3-(5,6,7,8-tetrahydro-1,8-naphthyridin-2-yl)azetidin-1-yl)phenyl)propanoic acid] | < 50
CN1C(=O)CN=C1NCCCCCCCC[C@H](NC(=O)c1c(Cl)cccc1Cl)C(=O)O [Example 50, (S)-2-(2,6-dichlorobenzamido)-10-((1-methyl-5-oxo-4,5-dihydro-1H-imidazol-2-yl)amino)decanoic acid] | > 1000
O=C(N[C@@H](Cc1ccc(OCCCc2ccc3c(n2)NCCC3)cc1)C(=O)O)c1cnc(C(F)F)cn1 [Example 3, (S)-2-(5-(difluoromethyl)pyrazine-2-carboxamido)-3-(4-(3-(5,6,7,8-tetrahydro-1,8-naphthyridin-2-yl)propoxy)phenyl)propanoic acid] | < 50
Cn1cc2cc(C(=O)NC(CCCCCCCc3ccc4c(n3)NCCC4)C(=O)O)ccc2n1 (stereo not drawn) [Compound 86, 2-(2-methyl-2H-indazole-5-carboxamido)-9-(5,6,7,8-tetrahydro-1,8-naphthyridin-2-yl)nonanoic acid] | 50 to 250
O=C(N[C@@H](CCCCCCCc1ccc2c(n1)NCCC2)C(=O)O)c1ccc2c(cnn2C(F)F)c1 [Compound 107] | 250 to 1000
O=C(N[C@@H](Cc1ccc(COCCc2ccc3c(n2)NCCC3)cc1)C(=O)O)c1c(Cl)cccc1Cl [Example 29, (S)-2-(2,6-dichlorobenzamido)-3-(4-((2-(5,6,7,8-tetrahydro-1,8-naphthyridin-2-yl)ethoxy)methyl)phenyl)propanoic acid trifluoroacetate] | < 50
O=C(N[C@@H](CCCCCCCc1ccc2c(n1)NCCC2)C(=O)O)c1cccc2[nH]ncc12 [Compound 116] | < 50

The remaining lines, values ahead:

IC50 [nM] | SMILES
< 50 | O=C(N[C@@H](Cc1ccc(OCCCc2ccc3c(n2)NCCC3)cc1)C(=O)O)c1c(Cl)cncc1Cl [Example 15, (S)-2-(3,5-dichloroisonicotinamido)-3-(4-(3-(5,6,7,8-tetrahydro-1,8-naphthyridin-2-yl)propoxy)phenyl)propanoic acid]
< 50 | Cn1cc2ccc(C(=O)N[C@@H](Cc3ccc(OCCCc4ccc5c(n4)NCCC5)cc3)C(=O)O)cc2n1 [Example 44, (2S)-2-[(2-methylindazole-6-carbonyl)amino]-3-[4-[3-(5,6,7,8-tetrahydro-1,8-naphthyridin-2-yl)propoxy]phenyl]propanoic acid]
< 50 | O=C(N[C@@H](Cc1ccc(OCCCc2ccc3c(n2)NCCC3)cc1)C(=O)O)c1c(F)cccc1F [Example 7, (S)-2-(2,6-difluorobenzamido)-3-(4-(3-(5,6,7,8-tetrahydro-1,8-naphthyridin-2-yl)propoxy)phenyl)propanoic acid]
< 50 | Cn1cc2cc(C(=O)N[C@@H](Cc3ccc(OCCCc4ccc5c(n4)NCCC5)cc3)C(=O)O)ccc2n1 [Example 45, (2S)-2-[(2-methylindazole-5-carbonyl)amino]-3-[4-[3-(5,6,7,8-tetrahydro-1,8-naphthyridin-2-yl)propoxy]phenyl]propanoic acid]
< 50 | O=C(NC(Cc1ccc(OCCCC2Cc3cccnc3N2)cc1)C(=O)O)c1c(Cl)cccc1Cl (stereo not drawn) [Example 18, 2-(2,6-dichlorobenzamido)-3-(4-(3-(2,3-dihydro-1H-pyrrolo[2,3-b]pyridin-2-yl)propoxy)phenyl)propanoic acid]
< 50 | O=C(NC(Cc1ccc(OCCCc2ccc3c(n2)NCCC3)cc1)C(=O)O)c1c(Cl)cc(-c2cnc[nH]2)cc1Cl (stereo not drawn) [Compound 99]
< 50 | O=C(N[C@@H](Cc1ccc(OCCCc2ccc3c(n2)NCCC3)cc1)C(=O)O)c1cc(Cl)cc(Cl)c1 [Example 35, (2S)-2-[(3,5-dichlorobenzoyl)amino]-3-[4-[3-(5,6,7,8-tetrahydro-1,8-naphthyridin-2-yl)propoxy]phenyl]propanoic acid]
< 50 | O=C(N[C@@H](Cc1ccc(OCCCc2ccc3c(n2)NCCC3)cc1)C(=O)O)c1cccnc1 [Example 14, (S)-2-(nicotinamido)-3-(4-(3-(5,6,7,8-tetrahydro-1,8-naphthyridin-2-yl)propoxy)phenyl)propanoic acid]
< 50 | Cn1ncc2cc(C(=O)N[C@@H](Cc3ccc(OCCCc4ccc5c(n4)NCCC5)cc3)C(=O)O)ccc21 [Example 43, (2S)-2-[(1-methylindazole-5-carbonyl)amino]-3-[4-[3-(5,6,7,8-tetrahydro-1,8-naphthyridin-2-yl)propoxy]phenyl]propanoic acid]
< 50 | O=CNc1cc(C(=O)N[C@@H](Cc2ccc(OCCCc3ccc4c(n3)NCCC4)cc2)C(=O)O)ccc1O [Example 12, (S)-2-(3-formamido-4-hydroxybenzamido)-3-(4-(3-(5,6,7,8-tetrahydro-1,8-naphthyridin-2-yl)propoxy)phenyl)propanoic acid]
